21 compounds from patent US11084800B2 (Achillion Pharmaceuticals, Inc., priority 2017, dated 2021) can be followed below.

Human Factor D, sequence (P00746 26-253): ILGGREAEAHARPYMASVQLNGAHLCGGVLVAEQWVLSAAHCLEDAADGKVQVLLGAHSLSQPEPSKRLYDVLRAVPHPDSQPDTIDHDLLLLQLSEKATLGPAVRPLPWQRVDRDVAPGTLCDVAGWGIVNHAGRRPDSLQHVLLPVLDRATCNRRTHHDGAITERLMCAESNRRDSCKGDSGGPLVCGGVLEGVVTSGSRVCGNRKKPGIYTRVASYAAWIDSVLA

The assay concerns the target Human Factor D (Homo sapiens (Human), UniProt P00746). Kind of assay: Human Factor D Assay. Format: biochemical. The note with it: Table 6; Factor D 80 nM, substrate Z-L-Lys-SBz; read-out: IC50. In outline: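 Thioester substrate Z-L-Lys-SBz (100 μM) with Ellman's reagent DTNB (100 μM) reports activity of 80 nM human serum-derived enzyme, kinetically at 405 nm over 30 min. Compound preincubated 5 min, room temperature, pH 7.5 Tris/1 M NaCl; IC50 by nonlinear fit of rates.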
In the case of `Cc1ncc(-c2ccc3c(c2)c(C(C)O)nn3CC(=O)N2[C@H](C(=O)Nc3nc(Br)ccc3C)C[C@@]3(C)C[C@@H]23)cn1` (stereo partly drawn) [Compound 72, (1R,3S,5R)-N-(6-bromo-3-methylpyridin-2-yl)-2-(2-(3-(1-hydroxyethyl)-5-(2-methylpyrimidin-5-yl)-1H-indazol-1-yl)acetyl)-5-methyl-2-azabicyclo[3.1.0]hexane-3-carboxamide], the IC50 fell in the range of 1000 to 10000 nM.

As for `CC(=O)c1nn(CC(=O)N2[C@H](C(=O)Nc3nc(Br)cc4ccccc34)C[C@@]3(C)C[C@@H]23)c2ccc(-c3cnc(C)nc3)cc12` [Compound 73, (1R,3S,5R)-2-(2-(3-Acetyl-5-(2-methylpyrimidin-5-yl)-1H-indazol-1-yl)acetyl)-N-(3-bromoisoquinolin-1-yl)-5-methyl-2-azabicyclo[3.1.0]hexane-3-carboxamide], the IC50 was less than 1000 nM.

Turning to `CC(=O)c1nn(CC(=O)N2[C@H](C(=O)Nc3nc(Br)ccc3C)C[C@@]3(CN(C)C)C[C@@H]23)c2c(CF)cc(-c3cnc(C)nc3)cc12` [Compound 74, (1R,3S,5R)-2-(2-(3-Acetyl-7-(fluoromethyl)-5-(2-methylpyrimidin-5-yl)-1H-indazol-1-yl)acetyl)-N-(6-bromo-3-methylpyridin-2-yl)-5-((dimethylamino)methyl)-2-azabicyclo[3.1.0]hexane-3-carboxamide], the IC50 is less than 1000 nM.

Take `CC(=O)c1nn(CC(=O)N2[C@H]3C[C@@]3(CN(C)C)C[C@H]2C(=O)Nc2nc(Br)ccc2C)c2c(CF)cc(-c3cnc(C)nc3)cc12` [Compound 75, (1S,3S,5S)-2-(2-(3-Acetyl-7-(fluoromethyl)-5-(2-methylpyrimidin-5-yl)-1H-indazol-1-yl)acetyl)-N-(6-bromo-3-methylpyridin-2-yl)-5-((dimethylamino)methyl)-2-azabicyclo[3.1.0]hexane-3-carboxamide]: the IC50 was less than 1000 nM.

Turning to `CC(=O)c1nn(CC(=O)N2C[C@@](F)(CF)C[C@H]2C(=O)Nc2nc(Br)ccc2C)c2c(CF)cc(-c3cnc(C)nc3)cc12` [Compound 76, (2S,4R)-1-(2-(3-acetyl-7-(fluoromethyl)-5-(2-methylpyrimidin-5-yl)-1H-indazol-1-yl)acetyl)-N-(6-bromo-3-methylpyridin-2-yl)-4-fluoro-4-(fluoromethyl)pyrrolidine-2-carboxamide], the IC50 was less than 1000 nM.

Turning to `CC(=O)c1nn(CC(=O)N2[C@H]3C[C@@]3(C)C[C@H]2C(=O)Nc2nc(Br)ccc2C)c2c(C(F)(F)F)cc(-c3cnc(C)nc3)cc12` [Compound 77, (1S,3S,5S)-2-(2-(3-acetyl-5-(2-methylpyrimidin-5-yl)-7-(trifluoromethyl)-1H-indazol-1-yl)acetyl)-N-(6-bromo-3-methylpyridin-2-yl)-5-methyl-2-azabicyclo[3.1.0]hexane-3-carboxamide], the IC50 was more than 10000 nM.

Turning to `CC(=O)c1nn(CC(=O)N2[C@H](C(=O)Nc3nc(Br)ccc3C)C[C@@]3(CN4CCN(C(C)=O)CC4)C[C@@H]23)c2ccc(-c3cnc(C)nc3)cc12` [Compound 78, (1R,3S,5R)-2-(2-(3-acetyl-5-(2-methylpyrimidin-5-yl)-1H-indazol-1-yl)acetyl)-5-((4-acetylpiperazin-1-yl)methyl)-N-(6-bromo-3-methylpyridin-2-yl)-2-azabicyclo[3.1.0]hexane-3-carboxamide], the IC50 is less than 1000 nM.

For the compound `CC(=O)c1nn(CC(=O)N2[C@H]3C[C@@]3(CN3CCN(C(C)=O)CC3)C[C@H]2C(=O)Nc2nc(Br)ccc2C)c2ccc(-c3cnc(C)nc3)cc12` [Compound 79, (1S,3S,5S)-2-(2-(3-acetyl-5-(2-methylpyrimidin-5-yl)-1H-indazol-1-yl)acetyl)-5-((4-acetylpiperazin-1-yl)methyl)-N-(6-bromo-3-methylpyridin-2-yl)-2-azabicyclo[3.1.0]hexane-3-carboxamide], the IC50 was 1000 to 10000 nM.

With `CC(=O)c1nn(CC(=O)N2[C@H](C(=O)NCCC(C)(C)C)C[C@@]3(C)C[C@@H]23)c2c(C)cc(-c3cnc(C)nc3)cc12` [Compound 80, (1R,3S,5R)-2-(2-(3-Acetyl-7-methyl-5-(2-methylpyrimidin-5-yl)-1H-indazol-1-yl)acetyl)-N-(3,3-dimethylbutyl)-5-methyl-2-azabicyclo[3.1.0]hexane-3-carboxamide], the IC50 was less than 1000 nM.

In the case of `CC(=O)c1nn(CC(=O)N2[C@H](C(=O)NCCOC(F)(F)F)C[C@@]3(C)C[C@@H]23)c2c(C)cc(-c3cnc(C)nc3)cc12` [Compound 81, (1R,3S,5R)-2-(2-(3-Acetyl-7-methyl-5-(2-methylpyrimidin-5-yl)-1H-indazol-1-yl)acetyl)-5-methyl-N-(2-(trifluoromethoxy)ethyl)-2-azabicyclo[3.1.0]hexane-3-carboxamide], the IC50 was less than 1000 nM.

Regarding `COc1cccc(NC(=O)[C@@H]2C[C@@]3(C)C[C@H]3N2C(=O)Cn2nc(C(C)=O)c3cc(-c4cnc(C)nc4)cc(C)c32)n1` [Compound 82, (1R,3S,5R)-2-(2-(3-Acetyl-7-methyl-5-(2-methylpyrimidin-5-yl)-1H-indazol-1-yl)acetyl)-N-(6-methoxypyridin-2-yl)-5-methyl-2-azabicyclo[3.1.0]hexane-3-carboxamide], the IC50 is less than 1000 nM.

Take `CC(=O)c1nn(CC(=O)N2C[C@H](F)C[C@H]2C(=O)Nc2cccc(O)n2)c2ccc(-c3cnc(C)nc3)cc12` [Compound 83, (2S,4R)-1-(2-(3-Acetyl-5-(2-methylpyrimidin-5-yl)-1H-indazol-1-yl)acetyl)-4-fluoro-N-(6-hydroxypyridin-2-yl)pyrrolidine-2-carboxamide]: the IC50 was 1000 to 10000 nM.

As for `COCc1ccc(Br)c(NC(=O)[C@@H]2C[C@@]3(C)C[C@H]3N2C(=O)Cn2nc(C(C)=O)c3cc(-c4cnc(C)nc4)cc(COC)c32)n1` [Compound 86, (1R,3S,5R)-2-(2-(3-acetyl-7-(methoxymethyl)-5-(2-methylpyrimidin-5-yl)-1H-indazol-1-yl)acetyl)-N-(3-bromo-6-(methoxymethyl)pyridin-2-yl)-5-methyl-2-azabicyclo[3.1.0]hexane-3-carboxamide], the IC50 is more than 10000 nM.

For the compound `CC(=O)c1nn(CC(=O)N2[C@H](C(=O)Nc3nc(Br)ccc3C)C[C@@]3(CN4CCNCC4)C[C@@H]23)c2c(C)cc(-c3cnc(C)nc3)cc12` [Compound 88, (1R,3S,5R)-2-(2-(3-Acetyl-7-methyl-5-(2-methylpyrimidin-5-yl)-1H-indazol-1-yl)acetyl)-N-(6-bromo-3-methylpyridin-2-yl)-5-(piperazin-1-ylmethyl)-2-azabicyclo[3.1.0]hexane-3-carboxamide], the IC50 is less than 1000 nM.

With `CC(=O)c1nn(CC(=O)N2[C@H](C(=O)Nc3nc(Br)ccc3C)C[C@@]3(CN4CC5(CCC5)C4)C[C@@H]23)c2c(C)cc(-c3cnc(C)nc3)cc12` [Compound 89, (1R,3S,5R)-5-(2-Azaspiro[3.3]heptan-2-ylmethyl)-2-(2-(3-acetyl-7-methyl-5-(2-methylpyrimidin-5-yl)-1H-indazol-1-yl)acetyl)-N-(6-bromo-3-methylpyridin-2-yl)-2-azabicyclo[3.1.0]hexane-3-carboxamide], the IC50 was less than 1000 nM.

As for `CC(=O)c1nn(CC(=O)N2[C@H]3C[C@@]3(C)C[C@H]2C(=O)Nc2nc(Br)ccc2C)c2c(C3CC3)cc(-c3cnc(C)nc3)cc12` [Compound 90, (1S,3S,5S)-2-(2-(3-acetyl-7-cyclopropyl-5-(2-methylpyrimidin-5-yl)-1H-indazol-1-yl)acetyl)-N-(6-bromo-3-methylpyridin-2-yl)-5-methyl-2-azabicyclo[3.1.0]hexane-3-carboxamide], the IC50 was less than 1000 nM.

Regarding `CC(=O)c1nn(CC(=O)N2[C@H](C(=O)Nc3nc(Br)ccc3CN(C)C)C[C@@]3(C)C[C@@H]23)c2ccc(-c3cnc(C)nc3)cc12` [Compound 91], the IC50 was less than 1000 nM.

In the case of `C=CCOC[C@@]12C[C@@H](C(=O)Nc3nc(Br)ccc3C=C)N(C(=O)Cn3nc(C(C)=O)c4cc(-c5cnc(C)nc5)ccc43)[C@@H]1C2` [Compound 93, (1R,3S,5S)-2-(2-(3-Acetyl-5-(2-methylpyrimidin-5-yl)-1H-indazol-1-yl)acetyl)-5-((allyloxy)methyl)-N-(6-bromo-3-vinylpyridin-2-yl)-2-azabicyclo[3.1.0]hexane-3-carboxamide], the 50% inhibitory concentration (IC50) was less than 1000 nM.

Regarding `CNC[C@@]12C[C@@H](C(=O)Nc3nc(Br)ccc3C)N(C(=O)Cn3nc(C(C)=O)c4cc(-c5cnc(C)nc5)cc(C)c43)[C@@H]1C2` [Compound 94, (1R,3S,5R)-2-(2-(3-Acetyl-7-methyl-5-(2-methylpyrimidin-5-yl)-1H-indazol-1-yl)acetyl)-N-(6-bromo-3-methylpyridin-2-yl)-5-((methylamino)methyl)-2-azabicyclo[3.1.0]hexane-3-carboxamide], the IC50 was less than 1000 nM.

Regarding `CC(=O)c1nn(CC(=O)N2[C@H](C(=O)Nc3nc(Br)ccc3C)C[C@@]3(CNC(=O)C4=C(F)CCC4)C[C@@H]23)c2c(C)cc(-c3cnc(C)nc3)cc12` [Compound 95, (1R,3S,5R)-2-(2-(3-Acetyl-7-methyl-5-(2-methylpyrimidin-5-yl)-1H-indazol-1-yl)acetyl)-N-(6-bromo-3-methylpyridin-2-yl)-5-((2-fluorocyclopent-1-enecarboxamido)methyl)-2-azabicyclo[3.1.0]hexane-3-carboxamide], the IC50 was less than 1000 nM.

For `CC(=O)NC[C@@]12C[C@@H](C(=O)Nc3nc(Br)ccc3C)N(C(=O)Cn3nc(C(C)=O)c4cc(-c5cnc(C)nc5)cc(C)c43)[C@@H]1C2` [Compound 96, (1R,3S,5R)-5-(Acetamidomethyl)-2-(2-(3-acetyl-7-methyl-5-(2-methylpyrimidin-5-yl)-1H-indazol-1-yl)acetyl)-N-(6-bromo-3-methylpyridin-2-yl)-2-azabicyclo[3.1.0]hexane-3-carboxamide], the IC50 is less than 1000 nM.

For orientation: IC50 means the concentration needed to halve the response being measured.
